Test results: patent US20160361314A1, “COMBINATION OF AN ALK INHIBITOR AND A CDK INHIBITOR FOR THE TREATMENT OF CELL PROLIFERATIVE DISEASES” (NOVARTIS AG, priority 2013, published 2016)
Read-outs that look alike come from different tables or passages of the source.

How the values were obtained:
[1] = system: SH-SY5Y (F1174L) human neuroblastoma cells; test: Cell morphology and cell death by optical microscopy; format: cell-based; details: each compound at its IC50, 72 hours after treatment
Description: Synergistic anti-proliferative effect of the combination of our invention was visualized by optical microscopy. […] Seventy-two hours after treatment, the treated samples were compared to the untreated samples (vehicle) by optical microscopy and recorded in micrographs (FIGS. 10A to D).

[2] = system: NBEBC1 neuroblastoma cells (WT); test: xCELLigence in vitro growth inhibition and Chou-Talalay combination index; format: cell-based; details: Homo sapiens, Neuroblastoma cell, single agent
[3] = system: SKNAS neuroblastoma cells (WT); test: xCELLigence in vitro growth inhibition (IC50); format: cell-based; details: Homo sapiens, SK-N-AS, 72 hours, single agent
Description: In vitro inhibitory activity was determined in five (5) neuroblastoma cell lines with a 96-well Real-Time Cell Electronic Sensing xCELLigence system (ACEA, San Diego, Calif.) which measures a “cell index”. Cell index is derived from alterations in electrical impedance as cells interact with the biocompatible microelectrode surface in each well to measure substrate adherent proliferation. Depending on the growth kinetics, the following cell densities were plated per well: NB1643: 20,000; SHSY5Y: 6,000; SKBE2C:10,000; NBEBC1: 11,000; NB1691: 30,000. After 24 hours, the plated cells were treated in triplicate with the test compound, each dose as indicated or with DMSO vehicle control. […] At 72 hours after drug exposure, the cell index was recorded.
The IC50 was calculated using GraphPad Prism 5.0 four parameter variable slope fitting.

[4] = system: NB1643 neuroblastoma cells (R1275Q); test: xCELLigence in vitro growth inhibition and Chou-Talalay combination index; details: for IC50: Homo sapiens; for Dose Reduction Index (DRI, from calculations) / Drug alone dose giving Fa (calculated) / Dose Reduction Index (DRI) / Drug alone dose giving Fa: NB1643; for Dose Reduction Index (DRI, from calculations) / Drug alone dose giving Fa (calculated): Table 7; for Dose Reduction Index (DRI): A1 and B co-treatment
Description: The concentration dependence of the anti-proliferation effect for both combination partners, first alone and then in combination were measured using the xCELLigence system. CI for each of the treatments was computed by CalcuSyn v2 software (Biosoft, MO).
In vitro inhibitory activity was determined in five (5) neuroblastoma cell lines with a 96-well Real-Time Cell Electronic Sensing xCELLigence system (ACEA, San Diego, Calif.) which measures a “cell index”. Cell index is derived from alterations in electrical impedance as cells interact with the biocompatible microelectrode surface in each well to measure substrate adherent proliferation. […] After 24 hours, the plated cells were treated in triplicate with the test compound, each dose as indicated or with DMSO vehicle control. […] At 72 hours after drug exposure, the cell index was recorded.
The IC50 was calculated using GraphPad Prism 5.0 four parameter variable slope fitting. These values were used in dosing of the combination study which follows.
Drug combination effects and quantification of synergy were determined using the Chou-Talalay combination index method (Trends Pharmacol Sci 4, 450-454) and CalcuSyn v2 software (Biosoft, MO) in four neuroblastoma cell lines. Cells were plated and in vitro proliferation was measured using the xCELLigence system as described above.
The anti-proliferation potency of each individual agent was estimated by the median-effect dose, Dm. […] Fa=0 is determined based on DMSO control by the dose, and Fa=1 is a full response (no viable cells left) and. • Fu: fraction unaffected by dose where fu=1−fa.
The effect of combination drug effects was determined utilizing the combination index (CI) as defined by Chou according to the following equation:
where (Dx)1 and (Dx)2 are the concentrations of compounds D1 and D2 needed to produce a given level of anti-proliferative effect when used individually, whereas (D)1 and (O)2 are their concentrations that produce the same anti-proliferative effect when used in combination. The combination index is a quantitative measure of drug interaction defined as an additive effect (CI=1), antagonism (CI>1), or synergy (CI<1). Typically, a CI range, as used herein, is used to assess synergy. A combination index of 0.9-1.1 indicates additive interaction, values below 0.9 indicate synergism, and values over 1.1 indicate antagonism. The follow is a description of the CI ranges: • <0.1+++++ Very strong synergism • 0.1-0.3++++ Strong synergism • 0.3-0.7+++ Synergism • 0.7-0.85++ Moderate synergism • 0.85-0.90+ Slight synergism • 0.90-1.10± Nearly additive • 1.10-1.20− Slight antagonism • 1.20-1.45−− Moderate antagonism
The combination index was used to assess the Dose-Reduction Index (DRI) (Chou and Chou, 1988), where:
CI=(D)1/(Dx)1+(D)2/Dx)2=1/(DRI)1+1/(DRI)2
The DRI estimates how much the dose of each drug can be reduced when synergistic drugs are given in combination, while still achieving the same effect size as each drug administered individually.

[5] = read-out: Dm (median-effect dose)
[6] = NB-1643, read-out: Dm (median-effect dose)
[7] = Fa 0.51, Table 6, from experimental values
[8] = Fa 0.75, Table 6, from experimental values
[9] = Fa 0.83, Table 6, from experimental values
[10] = Fa 0.9, first of two Fa 0.9 lines, Table 6
[11] = Fa 0.9, second of two Fa 0.9 lines, Table 6

Structure (SMILES): Cc1cc(Nc2ncc(Cl)c(Nc3ccccc3S(=O)(=O)C(C)C)n2)c(OC(C)C)cc1C1CCNCC1 [Compound A1, 5-chloro-N2-(2-isopropoxy-5-methyl-4-(piperidin-4-yl)phenyl)-N4-[2-(propane-2-sulfonyl)-phenyl]-pyrimidine-2,4-diamine]
- Intact cells and cell morphology by micrograph [1]: significant reduction in the number of intact cells
- IC50 ([2]; 72 hours, read-out: IC50): 1920 nM
- IC50 [2, 5]: 1660 nM
- IC50 [3]: 2150 nM
- IC50 ([4]; NB-1643, 72 h): 222 nM
- IC50 [4, 6]: 173 nM
- Dose Reduction Index (DRI, from calculations) ([4]; Fa 0.020): 3.099
- Drug alone dose giving Fa (calculated) ([4]; Fa 0.020): 0.0007501 µM
- Dose Reduction Index (DRI, from calculations) ([4]; Fa 0.050): 3.455
- Drug alone dose giving Fa (calculated) ([4]; Fa 0.050): 0.0028193 µM
- Dose Reduction Index (DRI, from calculations) ([4]; Fa 0.100): 3.764
- Drug alone dose giving Fa (calculated) ([4]; Fa 0.100): 0.0080106 µM
- Dose Reduction Index (DRI, from calculations) ([4]; Fa 0.150): 3.969
- Drug alone dose giving Fa (calculated) ([4]; Fa 0.150): 0.015292 µM
- Dose Reduction Index (DRI, from calculations) ([4]; Fa 0.200): 4.130
- Drug alone dose giving Fa (calculated) ([4]; Fa 0.200): 0.0248814 µM
- Dose Reduction Index (DRI, from calculations) ([4]; Fa 0.250): 4.269
- Drug alone dose giving Fa (calculated) ([4]; Fa 0.250): 0.0371953 µM
- Dose Reduction Index (DRI, from calculations) ([4]; Fa 0.300): 4.394
- Drug alone dose giving Fa (calculated) ([4]; Fa 0.300): 0.0528478 µM
- Dose Reduction Index (DRI, from calculations) ([4]; Fa 0.350): 4.510
- Drug alone dose giving Fa (calculated) ([4]; Fa 0.350): 0.0727063 µM
- Dose Reduction Index (DRI, from calculations) ([4]; Fa 0.400): 4.622
- Drug alone dose giving Fa (calculated) ([4]; Fa 0.400): 0.0979951 µM
- Dose Reduction Index (DRI, from calculations) ([4]; Fa 0.450): 4.732
- Drug alone dose giving Fa (calculated) ([4]; Fa 0.450): 0.130469 µM
- Dose Reduction Index (DRI, from calculations) ([4]; Fa 0.500): 4.842
- Drug alone dose giving Fa (calculated) ([4]; Fa 0.500): 0.1727061 µM
- Dose Reduction Index (DRI) [4, 7]: 3.321
- Drug alone dose giving Fa [4, 7]: 0.1826374 µM
- Dose Reduction Index (DRI, from calculations) ([4]; Fa 0.550): 4.954
- Drug alone dose giving Fa (calculated) ([4]; Fa 0.550): 0.2286167 µM
- Dose Reduction Index (DRI, from calculations) ([4]; Fa 0.600): 5.072
- Drug alone dose giving Fa (calculated) ([4]; Fa 0.600): 0.3043766 µM
- Dose Reduction Index (DRI, from calculations) ([4]; Fa 0.650): 5.198
- Drug alone dose giving Fa (calculated) ([4]; Fa 0.650): 0.4102451 µM
- Dose Reduction Index (DRI, from calculations) ([4]; Fa 0.700): 5.336
- Drug alone dose giving Fa (calculated) ([4]; Fa 0.700): 0.564402 µM
- Dose Reduction Index (DRI) [4, 8]: 7.224
- Drug alone dose giving Fa [4, 8]: 0.8019141 µM
- Dose Reduction Index (DRI, from calculations) ([4]; Fa 0.750): 5.492
- Drug alone dose giving Fa (calculated) ([4]; Fa 0.750): 0.8019141 µM
- Dose Reduction Index (DRI, from calculations) ([4]; Fa 0.800): 5.676
- Drug alone dose giving Fa (calculated) ([4]; Fa 0.800): 1.1987842 µM
- Dose Reduction Index (DRI) [4, 9]: 7.135
- Drug alone dose giving Fa [4, 9]: 1.5839055 µM
- Dose Reduction Index (DRI, from calculations) ([4]; Fa 0.850): 5.907
- Drug alone dose giving Fa (calculated) ([4]; Fa 0.850): 1.9505238 µM
- Dose Reduction Index (DRI) [4, 10]: 8.386
- Drug alone dose giving Fa [4, 10]: 3.7234705 µM
- Dose Reduction Index (DRI) [4, 11]: 4.193
- Drug alone dose giving Fa [4, 11]: 3.7234705 µM
- Dose Reduction Index (DRI, from calculations) ([4]; Fa 0.900): 6.229
- Drug alone dose giving Fa (calculated) ([4]; Fa 0.900): 3.7234705 µM
- Dose Reduction Index (DRI, from calculations) ([4]; Fa 0.950): 6.786
- Drug alone dose giving Fa (calculated) ([4]; Fa 0.950): 10.58 µM
- Dose Reduction Index (DRI, from calculations) ([4]; Fa 0.990): 8.200
- Drug alone dose giving Fa (calculated) ([4]; Fa 0.990): 106.3 µM

Structure (SMILES): CN(C)C(=O)c1cc2cnc(Nc3ccc(N4CCNCC4)cn3)nc2n1C1CCCC1 [Compound B, 7-cyclopentyl-N,N-dimethyl-2-((5-(piperazin-1-yl)pyridin-2-yl)amino)-7H-pyrrolo[2,3-d]pyrimidine-6-carboxamide]
- Intact cells and cell morphology by micrograph [1]: minimal effect in cell numbers and cell morphology
- IC50 ([2]; 72 hours, read-out: IC50): 328 nM
- IC50 [2, 5]: 1260 nM
- IC50 [3]: 4720 nM
- IC50 ([4]; NB-1643, 72 h): 750 nM
- IC50 [4, 6]: 788 nM
- Drug alone dose giving Fa (calculated) ([4]; Fa 0.020): 0.0013507 µM
- Drug alone dose giving Fa (calculated) ([4]; Fa 0.050): 0.0063668 µM
- Drug alone dose giving Fa (calculated) ([4]; Fa 0.100): 0.021628 µM
- Drug alone dose giving Fa (calculated) ([4]; Fa 0.150): 0.0461139 µM
- Drug alone dose giving Fa (calculated) ([4]; Fa 0.200): 0.0815448 µM
- Drug alone dose giving Fa (calculated) ([4]; Fa 0.250): 0.1305781 µM
- Drug alone dose giving Fa (calculated) ([4]; Fa 0.300): 0.1970133 µM
- Drug alone dose giving Fa (calculated) ([4]; Fa 0.350): 0.2862422 µM
- Drug alone dose giving Fa (calculated) ([4]; Fa 0.400): 0.4060079 µM
- Drug alone dose giving Fa (calculated) ([4]; Fa 0.450): 0.5676688 µM
- Drug alone dose giving Fa (calculated) ([4]; Fa 0.500): 0.78836 µM
- Drug alone dose giving Fa [4, 7]: 0.8417031 µM
- Drug alone dose giving Fa (calculated) ([4]; Fa 0.550): 1.0948487 µM
- Drug alone dose giving Fa (calculated) ([4]; Fa 0.600): 1.5307866 µM
- Drug alone dose giving Fa (calculated) ([4]; Fa 0.650): 2.1712783 µM
- Drug alone dose giving Fa (calculated) ([4]; Fa 0.700): 3.1546674 µM
- Drug alone dose giving Fa [4, 8]: 4.7596923 µM
- Drug alone dose giving Fa (calculated) ([4]; Fa 0.750): 4.7596923 µM
- Drug alone dose giving Fa (calculated) ([4]; Fa 0.800): 7.6217203 µM
- Drug alone dose giving Fa [4, 9]: 10.56 µM
- Drug alone dose giving Fa (calculated) ([4]; Fa 0.850): 13.48 µM
- Drug alone dose giving Fa [4, 10]: 28.74 µM
- Drug alone dose giving Fa [4, 11]: 28.74 µM
- Drug alone dose giving Fa (calculated) ([4]; Fa 0.900): 28.74 µM
- Drug alone dose giving Fa (calculated) ([4]; Fa 0.950): 97.62 µM
- Drug alone dose giving Fa (calculated) ([4]; Fa 0.990): 1455 µM
